Data published in PubChem BioAssay AID328 (DTP/NCI, 2004).
Values joined by “and” are separate entries in the source; they are usually repeats but may differ in a detail not shown here. Equal values may be shown once. Inconclusive results and toxic doses are left out. How the source made its calls: active means survival T/C of 150% or more; inactive means T/C below 125% in these data.

Tested on: BDF1 mice, P388 leukemia ip, median survival T/C
Assay: NCI In Vivo Anticancer Drug Screen. Data for tumor model P388 Leukemia (intraperitoneal) in B6D2F1 (BDF1) mice
Conditions: endpoint: median survival time, higher = longer survival
Procedure, shortened: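 Vehicle-dosed animals serve as the reference; survival of compound-dosed, tumour-implanted mice is divided by it.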

[1] = dose: 200.0 mg/kg/injection, schedule: Q01DX009 (ip), vehicle: saline with Tween-80
[2] = dose: 50.0 mg/kg/injection, schedule: Q01DX009 (ip), vehicle: saline with Tween-80
[3] = dose: 50.0 mg/kg/injection, schedule: Q04DX003 (ip), vehicle: saline with Tween-80
[4] = dose: 100.0 mg/kg/injection, schedule: Q01DX009 (ip), vehicle: saline with Tween-80

Measured: T/C

O=[N+]([O-])c1ccc(N/N=C\c2ccc3ccccc3n2)cc1
inactive: dose: 100.0 mg/kg/injection, schedule: Q01DX009 (ip), vehicle: saline 104 % of control | dose: 100.0 mg/kg/injection, schedule: Q04DX003 (ip), vehicle: saline 118 % of control | dose: 200.0 mg/kg/injection, schedule: Q01DX009 (ip), vehicle: saline 109 % of control | dose: 200.0 mg/kg/injection, schedule: Q04DX003 (ip), vehicle: saline 104 % of control | dose: 400.0 mg/kg/injection, schedule: Q04DX003 (ip), vehicle: saline 109 % of control

COc1cc2c(c(OC)c1OC)C(=O)/C(=C\c1ccccc1)O2
inactive: [1] 96 % of control

CCOC(=O)c1c(NC(C)=O)sc2c1CCCC2
inactive: [2] 104 % of control | [3] 90 % of control | [4] 100 % of control | dose: 100.0 mg/kg/injection, schedule: Q04DX003 (ip), vehicle: saline with Tween-80 104 % of control | [1] 100 % of control | dose: 200.0 mg/kg/injection, schedule: Q04DX003 (ip), vehicle: saline with Tween-80 100 % of control

O=C(O)c1ccc(C2CC2)cc1
inactive: [4] 95 % of control | [1] 90 % of control | dose: 400.0 mg/kg/injection, schedule: Q01DX009 (ip), vehicle: saline with Tween-80 90 % of control

COc1ccc(C(CC(=O)c2ccc3c(c2)OCO3)c2c(O)c3ccccc3oc2=O)cc1OC (stereo not given)
inactive: dose: 25.0 mg/kg/injection, schedule: Q01DX009 (ip), vehicle: saline with Tween-80 89 % of control | [2] 91 % of control

CCC1=C(C[C@H]2NCCc3cc(OC)c(OC)cc32)C[C@H]2c3cc(OC)c(OC)cc3CCN2C1
inactive: dose: 4.0 mg/kg/injection, schedule: Q04DX003 (ip), vehicle: saline 110 % of control | dose: 6.7 mg/kg/injection, schedule: Q04DX003 (ip), vehicle: saline with Tween-80 113 % of control | dose: 75.0 mg/kg/injection, schedule: Q04DX003 (ip), vehicle: saline 90 % of control
active: dose: 15.0 mg/kg/injection, schedule: Q04DX003 (ip), vehicle: saline with Tween-80 159 % of control | dose: 16.0 mg/kg/injection, schedule: Q04DX003 (ip), vehicle: saline 158 % of control | dose: 22.0 mg/kg/injection, schedule: Q04DX003 (ip), vehicle: Klucel (hydroxypropylcellulose) (HPC) 165 % of control | dose: 32.0 mg/kg/injection, schedule: Q04DX003 (ip), vehicle: saline 174 % of control | dose: 33.0 mg/kg/injection, schedule: Q04DX003 (ip), vehicle: Klucel (hydroxypropylcellulose) (HPC) 165 % of control | dose: 33.0 mg/kg/injection, schedule: Q04DX003 (ip), vehicle: saline with Tween-80 177 % of control | dose: 33.0 mg/kg/injection, schedule: Q04DX003 (ip), vehicle: saline 154 % of control | [3] 195 % of control

O=C(O)C1CC2c3ccccc3C1c1ccccc12 (stereo not given)
inactive: dose: 100.0 mg/kg/injection, schedule: Q04DX003 (ip), vehicle: Klucel (hydroxypropylcellulose) (HPC) 90 % of control | dose: 200.0 mg/kg/injection, schedule: Q04DX003 (ip), vehicle: Klucel (hydroxypropylcellulose) (HPC) 95 % of control | dose: 400.0 mg/kg/injection, schedule: Q04DX003 (ip), vehicle: Klucel (hydroxypropylcellulose) (HPC) 109 % of control

O=C1Cc2cc(=C(c3ccccc3)c3ccccc3)ccc2=C1c1ccccc1
inactive: dose: 50.0 mg/kg/injection, schedule: Q01DX005 (ip), vehicle: saline with Tween-80 93 % of control | dose: 100.0 mg/kg/injection, schedule: Q01DX005 (ip), vehicle: saline with Tween-80 96 % of control | dose: 200.0 mg/kg/injection, schedule: Q01DX005 (ip), vehicle: saline with Tween-80 91 % of control

ClC1=NC(Cl)C(Cl)=N/C1=N\c1ncn[nH]1 (stereo not given)
inactive: dose: 6.25 mg/kg/injection, schedule: Q01DX009 (ip), vehicle: saline with Tween-80 110 % of control | dose: 22.0 mg/kg/injection, schedule: Q04DX003 (ip), vehicle: saline with Tween-80 113 % of control | [3] 118 % of control | dose: 75.0 mg/kg/injection, schedule: Q04DX003 (ip), vehicle: saline with Tween-80 90 % of control

CC(=O)c1cc(CN(CCCl)CCCl)c(O)c(CN(CCCl)CCCl)c1O
inactive: dose: 0.05 mg/kg/injection, schedule: Q01DX009 (ip), vehicle: Klucel (hydroxypropylcellulose) (HPC) 100 % of control | dose: 0.1 mg/kg/injection, schedule: Q01DX009 (ip), vehicle: Klucel (hydroxypropylcellulose) (HPC) 120 % of control | dose: 0.2 mg/kg/injection, schedule: Q01DX009 (ip), vehicle: Klucel (hydroxypropylcellulose) (HPC) 110 % of control | dose: 0.4 mg/kg/injection, schedule: Q01DX009 (ip), vehicle: Klucel (hydroxypropylcellulose) (HPC) 120 % of control | dose: 6.25 mg/kg/injection, schedule: Q01DX009 (ip), vehicle: Klucel (hydroxypropylcellulose) (HPC) 118 % of control
active: dose: 5.5 mg/kg/injection, schedule: Q01DX009 (ip), vehicle: Klucel (hydroxypropylcellulose) (HPC) 162 % of control | dose: 8.0 mg/kg/injection, schedule: Q01DX009 (ip), vehicle: Klucel (hydroxypropylcellulose) (HPC) 166 % of control | dose: 8.3 mg/kg/injection, schedule: Q01DX009 (ip), vehicle: Klucel (hydroxypropylcellulose) (HPC) 166 % of control | dose: 12.0 mg/kg/injection, schedule: Q01DX009 (ip), vehicle: Klucel (hydroxypropylcellulose) (HPC) 183 % of control | dose: 12.5 mg/kg/injection, schedule: Q01DX009 (ip), vehicle: Klucel (hydroxypropylcellulose) (HPC) 183 % of control and 190 % of control | dose: 18.0 mg/kg/injection, schedule: Q01DX009 (ip), vehicle: Klucel (hydroxypropylcellulose) (HPC) 250 % of control | dose: 25.0 mg/kg/injection, schedule: Q01DX009 (ip), vehicle: Klucel (hydroxypropylcellulose) (HPC) 154 % of control
